Read-outs that look alike come from different tables or passages of the source. No end group written: not given here.
Assays:
[1] = biological target: LPS/F22-4; test: ELISA inhibition of LPS/F22-4 binding; parameters: species or system murine
[2] = biological target: mAb F22-4; test: StopFlow antibody-ligand binding; parameters: species or system murine
[3] = test system: F22-4 antibody; test: ITC microcalorimetry; assay type: binding, murine
From the text: ITC experiments with F22-4 antibody and several chemically synthesized oligosaccharidic fragments of O-Ag 2a lead to two major results.

[4] = biological target: mAb F22-4; test: Biacore antibody-ligand binding (equilibrium and kinetic analysis); parameters: species or system murine
[5] = test system: LPS/F22-4; settings: cited from earlier work
[6] = test system: S. flexneri 2a mAb (F22-4); test: Reactivity of selected or conjugated peptides with the F22-4 mAb; assay type: binding, murine; settings: conjugated peptides, coupled to BSA
From the text: Two protective mAbs directed against S. flexneri LPS 2a (IgG C1-7 and IgG F22-4) were used for mimotope selection using the two libraries displaying 12 amino acid-long inserts.
The peptides have been synthesized with a flanking region AEGEF at the N-terminal and DPAKC at the C-terminal. The peptides have been conjugated to maleimide-activated bovine serum albumin (BSA) and to maleimide-activated keyhole limpet hemocyanine (KLH) using a kit from Pierce. The seven different sequences have been selected by Partner 4, all showing good reactivity with the S. flexneri 2a mAb (F22-4) and being inhibited by the LPS. Five of the sequences, B24, B1, C8, C26 and C17 (shown below in bold) have been chosen for further analyzes. The reason that the peptides C22 and C3 have been omitted are that they contain cysteine and the conjugation procedure that we exploited used cysteine for coupling to the protein. The conjugated peptides have been tested for reactivity with the F22-4 mAb and were positive when coupled to BSA. […] Sequences of peptides selected using the S. flexneri 2a specific mAb F22-4

[7] = biological target: LPS/F22-4; test: ELISA inhibition of LPS/F22-4 binding; parameters: species or system murine; remark: listed apart in the source
[8] = biological target: mAb F22-4; test: Biacore antibody-ligand binding (equilibrium and kinetic analysis); parameters: species or system murine; settings: equilibrium analysis; read-out: Biacore Eq KD
[9] = PBS buffer at 25°C, read-out: KD
[10] = Table 6 recapitulation, read-out: microcal KD
[11] = equilibrium analysis, read-out: Biacore Eq KD
[12] = kinetic analysis, read-out: Biacore Cin KD

Row | Compound | IC50 [1] | Kd [2] | ΔH (Kcal/mol) ([3]; PBS buffer at 25°C) | ΔS (cal/mol/K) ([3]; PBS buffer at 25°C) | Kd [3, 9] | Kd [3, 10] | Kd [4, 11] | Biacore Cin koff(s-1) ([4]; kinetic analysis) | Kd [4, 12] | effectiveness in inhibition compared with ECD ([5]; LPS/F22-4 inhibition studies (12), (13)) | StopFlow koff(s-1) [2] | StopFlow kon(M-1.s-1) [2] | reactivity with the F22-4 mAb [6] | IC50 compared with B(E)CDA'B'(E')C' ([5]; reference (12)) | IC50 [7] | Kd [8]
1 | CO[C@@H]1O[C@@H](C)[C@H](O[C@H]2O[C@H](CO)[C@@H](O)[C@H](O)[C@H]2O)[C@@H](O[C@@H]2O[C@@H](C)[C@H](O)[C@@H](O)[C@H]2O[C@@H]2O[C@@H](C)[C@H](O)[C@@H](O)[C@H]2O[C@@H]2O[C@H](CO)[C@@H](O)[C@H](O)[C@H]2NC(C)=O)[C@H]1O [DAB(E)C] | > 1000 µM | > 1100 µM |  |  |  |  |  |  |  |  |  |  |  |  |  | 
2 | COC1OC(C)C(OC2OC(CO)C(O)C(O)C2O)C(OC2OC(C)C(O)C(O)C2OC2OC(C)C(O)C(O)C2OC2OC(CO)C(O)C(OC3OC(C)C(OC4OC(CO)C(O)C(O)C4O)C(OC4OC(C)C(O)C(O)C4O)C3O)C2NC(C)=O)C1O (stereo not drawn) [B(E)CDAB(E)C] | 0.22 µM | 0.16 µM | -19,5±0,2 Kcal/mol | -36,6 cal/mol/K | 0.47 µM | 0.47 µM | 0.61 µM | 0,068±0,03 s-1 | 0.75 µM | about three orders of magnitude more effective | 0,05 s-1 | 3,10E+05 M-1.s-1 |  |  |  | 
3 | CC(=O)N[C@@H]1[C@@H](O[C@@H]2O[C@@H](C)[C@H](O[C@H]3O[C@H](CO)[C@@H](O)[C@H](O)[C@H]3O)[C@@H](O[C@@H]3O[C@@H](C)[C@H](O)[C@@H](O)[C@H]3O[C@@H]3O[C@@H](C)[C@H](O)[C@@H](O)[C@H]3O[C@@H]3O[C@H](CO)[C@@H](O)[C@H](O[C@@H]4O[C@@H](C)[C@H](O[C@H]5O[C@H](CO)[C@@H](O)[C@H](O)[C@H]5O)[C@@H](O[C@@H]5O[C@@H](C)[C@H](O)[C@@H](O)[C@H]5O[C@@H]5O[C@@H](C)[C@H](O)[C@@H](O)[C@H]5O)[C@H]4O)[C@H]3NC(C)=O)[C@H]2O)[C@H](O)[C@@H](CO)O[C@H]1O [[AB(E)CD]2] | 0.7 µM | 1.5 µM | -17,7±0,7 Kcal/mol | -31,7 cal/mol/K | 1.04 µM | 1.04 µM | 1 µM | 0,074±0,004 s-1 | 1.09 µM |  | 0,13 s-1 | 8,30E+04 M-1.s-1 |  |  |  | 
4 | CC(=O)N[C@@H]1[C@@H](O[C@@H]2O[C@@H](C)[C@H](O[C@H]3O[C@H](CO)[C@@H](O)[C@H](O)[C@H]3O)[C@@H](O[C@@H]3O[C@@H](C)[C@H](O)[C@@H](O)[C@H]3O[C@@H]3O[C@@H](C)[C@H](O)[C@@H](O)[C@H]3O[C@@H]3O[C@H](CO)[C@@H](O)[C@H](O[C@@H]4O[C@@H](C)[C@H](O[C@H]5O[C@H](CO)[C@@H](O)[C@H](O)[C@H]5O)[C@@H](O[C@@H]5O[C@@H](C)[C@H](O)[C@@H](O)[C@H]5O[C@@H]5O[C@@H](C)[C@H](O)[C@@H](O)[C@H]5O[C@@H]5O[C@H](CO)[C@@H](O)[C@H](O[C@@H]6O[C@@H](C)[C@H](O[C@H]7O[C@H](CO)[C@@H](O)[C@H](O)[C@H]7O)[C@@H](O[C@@H]7O[C@@H](C)[C@H](O)[C@@H](O)[C@H]7O[C@@H]7O[C@@H](C)[C@H](O)[C@@H](O)[C@H]7O)[C@H]6O)[C@H]5NC(C)=O)[C@H]4O)[C@H]3NC(C)=O)[C@H]2O)[C@H](O)[C@@H](CO)O[C@H]1O [[AB(E)CD]3] | 0.32 µM | 0.69 µM | -17,3±0,8 Kcal/mol | -30,6 cal/mol/K | 1.03 µM | 1.03 µM | 0.56 µM | 0,075+0,005^(H) s-1 | 1.56 µM |  | 0,11 s-1 | 1,70E+05 M-1.s-1 |  |  |  | 
5 | AEGEFPHGEIFHMMRRPDPAKC-COOH (AEGEFPHGEIFHMMRRPDPAKC-OH) [Peptide C17] |  |  |  |  |  |  |  |  |  |  |  |  | poor reactivity |  |  | 
6 | COC1OC(C)C(OC2OC(CO)C(O)C(O)C2O)C(OC2OC(C)C(O)C(O)C2OC2OC(C)C(O)C(O)C2OC2OC(CO)C(O)C(OC3OC(C)C(OC4OC(CO)C(O)C(O)C4O)C(OC4OC(C)C(O)C(O)C4OC4OC(C)C(O)C(O)C4OC4OC(CO)C(O)C(O)C4NC(C)=O)C3O)C2NC(C)=O)C1O (stereo not drawn) [DAB(E)CDAB(E)C] | 5 ± 1.4 µM | 5 µM | -19,5±01,2 Kcal/mol | -41,2 cal/mol/K | 5.4 µM | 5.4 µM | 5.32 µM | 0,123±0,04 s-1 | 4.47 µM |  | 0,29 s-1 | 5,90E+04 M-1.s-1 |  | only an order of magnitude higher |  | 
7 | COC1OC(C)C(O)C(O)C1OC1OC(CO)C(O)C(OC2OC(C)C(OC3OC(CO)C(O)C(O)C3O)C(O)C2O)C1NC(C)=O (stereo not drawn) [ECDA] |  |  | -11,3±0,1 Kcal/mol | -19.2 cal/mol/K | 89 ± 1 µM |  |  |  |  |  |  |  |  |  |  | 
8 | CO[C@@H]1O[C@@H](C)[C@H](O)[C@@H](O)[C@H]1O[C@@H]1O[C@H](CO)[C@@H](O)[C@H](O[C@@H]2O[C@@H](C)[C@H](O[C@H]3O[C@H](CO)[C@@H](O)[C@H](O)[C@H]3O)[C@@H](O[C@@H]3O[C@@H](C)[C@H](O)[C@@H](O)[C@H]3O)[C@H]2O)[C@H]1NC(C)=O [B(E)CDA] | 2.5 µM | 3.5 µM | -14,2±0,1 Kcal/mol | -22,7 cal/mol/K | 3.35 µM | 3.35 µM | 4.1 µM |  |  |  | 2,4 s-1 | 7,00E+05 M-1.s-1 |  |  |  | 
9 | YLEDWIKYNNQK [Peptide B1] |  |  | -24,0 ±0,1 Kcal/mol | -54,6 cal/mol/K |  | 2.49 µM |  |  |  |  |  |  |  |  | ~3 µM | 2.98 µM
10 | CO[C@@H]1O[C@@H](C)[C@H](O)[C@@H](O)[C@H]1O[C@@H]1O[C@@H](C)[C@H](O)[C@@H](O)[C@H]1O[C@@H]1O[C@H](CO)[C@@H](O)[C@H](O[C@@H]2O[C@@H](C)[C@H](O[C@H]3O[C@H](CO)[C@@H](O)[C@H](O)[C@H]3O)[C@@H](O)[C@H]2O)[C@H]1NC(C)=O [ECDAB] | 354 ± 40 µM | 300 µM | -10,8±0,1 Kcal/mol | -19,6 cal/mol/K | 230 ± 2 µM | 230 ± 2 µM |  |  |  |  |  |  |  |  |  | 
